Assay results from paper PMC11720353, “Clove Essential Oil as a Source of Antitumoral Compounds Capable of Crossing the Blood–Brain Barrier: A Focus on the Effects of β-Caryophyllene and Eugenol in a Glioblastoma Cell Line” (International Journal of Molecular Sciences, 2024).

Assays:
U87 cells [1] = test: Inflammatory cytokines in conditioned media (Luminex/BioPlex); format: cell-based, human; details: EU 200 µM, BCA 125 µM, alone or in combination, 24 h
Experimental: (§1) In order to determine the impact of BCA and/or EU on inflammatory cytokines levels, cytokine expression analyses (L-6, IL-4, IL-8 and TNF-α) were performed using a customized detection panel purchased from Bio-techne (Minneapolis, MN, USA). The cells were seeded, in triplicate, into 24-well culture plates (8 × 10^4 cells/well). After 24 h, the medium was replaced and the cells were treated either with the vehicle (ethanol) or with different concentrations of EO single compounds alone (EU: 2 µM, 20 µM, 200 µM; and BCA: 1.25 µM, 12.5 µM, 125 µM) or in combination (EU 2 µM + BCA 1.25 µM; EU 20 µM + BCA 12.5 µM; and EU 200 µM + BCA 125 µM). The final concentration of ethanol in the cell medium was kept lower than 0.1%. The ethanol 0.1%-treated cells were considered the control condition. After the 24 h treatment, supernatants were collected and centrifuged at 4,000× g for 10 min, and the samples were analyzed with the BioPlex 200 instrument (BioRad®, Hercules, CA, USA) following the manufacturer’s protocol.

HMC3 cells [2] = test: as above; format: cell-based, human; details: EU 200 µM, BCA 125 µM, alone or in combination, 24 h
Experimental: as §1

U87 cells [3] = test: Cell death assay (Annexin V/PI, flow cytometry); format: cell-based, human; details: EU 200 µM, BCA 125 µM, alone or in combination, 24 h
Experimental: HMC3 and U87 cells were seeded in duplicate into 12-well plates (10 × 10^4 cells/well). After 24 h of incubation at 37 °C and 5% CO2, the medium was replaced, and the cells were treated either with EU (200 µM) or BCA (125 µM), alone and in combination (EU 200 µM + BCA 125 µM). Following the 24 h treatment, the cells were co-stained with AV-APC and PI according to the manufacturer’s protocol (Biolegend, San Diego, CA, USA). Briefly, the cells were resuspended in binding buffer (100 µL) and incubated with AV-APC solution (5 µL) and PI solution (2 µL) for 15 min at room temperature. Then, the cells were diluted in a binding buffer (400 µL). A six-parameter, four-color FACSCalibur flow cytometer (Becton Dickinson, San Jose, CA, USA) was used, and at least 10,000 events were collected by acquisition using CellQuest software (Becton Dickinson, San Jose, CA, USA). The results were analyzed with the Paint-a-Gate software and expressed in percentage (%).

U87 cells [4] = test: Metabolic activity (Alamar blue) assay and HSA synergy analysis; format: cell-based, human; details: EU 2.5, 25, 200 µM or BCA 1.25, 12.5, 125 µM alone, 24-72 h
Experimental: To evaluate the cytotoxic/antiproliferative potential of BCA and/or EU, the U87 and HMC3 cells were seeded, in triplicate, into 48-well culture plates (4 × 10^4 cells/well). After 24 h, the medium was replaced, and the cells were treated either with the vehicle (ethanol) or with different concentrations of EO single molecules, diluted in ethanol alone ([…]; BCA: 1.25 µM, µM, 125 µM) or in combination (EU 2 µM and BCA 1.25 µM; EU 20 µM and BCA 12.5 µM; and EU 200 µM and BCA 125 µM) in order to evaluate the possible synergistic effects. The final concentration of ethanol in the cell medium was kept lower than 0.1%. Non-treated cells were considered the control condition. Metabolic activity was evaluated using a modified Alamar blue® assay, as previously described. […] After 2 h of incubation at 5% CO2 and 37 °C, the absorbance was read at 570 and 600 nm in a BioTeck (BioTek Instruments, Inc., Winooski, VT, USA). The absorbance results were obtained using the Gen5 program. The metabolic activity was then calculated by the following equation: Metabolicactivity %=A570−A600 oftreated cells/A570−A600 ofcontrol cells×100 All data were analyzed using the software GraphPad Prism v.9.00 (GraphPad Software, San Diego, CA, USA). All in vitro experiments were performed in triplicate, and the acquired results were expressed as means ± SEM. […]

[5] = rat, in vivo, cited from earlier work
U87 cells [6] = test: Cell cycle analysis (PI/RNase, flow cytometry); format: cell-based, human; details: BCA 125 µM alone or with EU 200 µM, 24 h
Experimental: (§2) Analysis of the effect of BCA and/or EU on the cell cycle was assessed with flow cytometry using propidium iodide (PI)/RNase solution, according to the manufacturer’s protocol (Immunostep, Salamanca, Spain), as previously described. HMC3 and U87 cells (30 × 10^4 cells/well) were seeded in triplicate into 6-well plates and incubated for 24 h at 37 °C and 5% CO2. Thereafter, the cells were treated either with EU (200 µM) or BCA (125 µM) alone or in combination (EU 200 µM + BCA 125 µM). After 24 h, the cells were detached and fixed in 70% ethanol for 60 min at 4 °C, washed twice with PBS, and then stained with 500 µL of PI/RNase solution. The results were acquired using CellQuest software and expressed as the calculated percentage of the cell population in each cell cycle phase (G0/G1, S and G2/M) according to the PI intensity.

HMC3 cells [7] = test: Cell cycle analysis (PI/RNase, flow cytometry); format: cell-based, human; details: EU 200 µM, BCA 125 µM, alone or in combination, 24 h
Experimental: as §2

C=C1CC/C=C(\C)CC[C@@H]2[C@@H]1CC2(C)C [BCA, β-Caryophyllene]
IL-4 levels, change vs control (U87 cells [1]): −29.3% | IL-6 secretion, change vs control (U87 cells [1]): None of the treatments modulated | IL-8 secretion, change vs control (U87 cells [1]): unaffected | IL-4 levels, change vs control (HMC3 cells [2]): −52.2% | IL-6 secretion, change vs control (HMC3 cells [2]): −55.5% | IL-8 secretion, change vs control (HMC3 cells [2]): −38.0% | TNF-α secretion, change vs control (HMC3 cells [2]): −49.7% | live (viable) cells, change with respect to control (U87 cells [3]): did not affect | reduction in metabolic activity, single compounds (U87 cells [4]): No reduction | oral acute LD50 ([5]; po): over 5000 mg/kg | No Observed Adverse Effect Level (NOAEL) dose [5]: 700 mg/kg | decrease in percentage of cells in the S phase (U87 cells [6]): −49.4% | increase in percentage of cells in the G0/G1 phase (U87 cells [6]): 21.1% | effect on cell cycle (HMC3 cells [7]): no effects
